Starred links: 1 amine or outer side, 2 acyl side, 3 side chain; linkers in the order of their positions; H or OH if unused. Positions of bridges follow the written chain, without caps; N, C: chain ends. Non-standard residues stand in square brackets, D forms with d. Residues, ends and D or L forms follow the SMILES beside them. Chains are numbered I, II in the order given. X2 = O=C(O)CNC(=O)c1cc(N[*:1])cc(N[*:2])c1; X1 = NC(=O)c1cc(N[*:1])cc(N[*:2])c1; Glutaryl = O=C(CCCC(=O)[*:2])[*:1]; 3Abz = Nc1cccc(C(=O)O)c1; 4Abz = Nc1ccc(C(=O)O)cc1; 2Abz = Nc1ccccc1C(=O)O
Molecular target: human platelet-rich plasma (Homo sapiens, UniProt P05106+P08514)
Sequence (P08514 32-1039): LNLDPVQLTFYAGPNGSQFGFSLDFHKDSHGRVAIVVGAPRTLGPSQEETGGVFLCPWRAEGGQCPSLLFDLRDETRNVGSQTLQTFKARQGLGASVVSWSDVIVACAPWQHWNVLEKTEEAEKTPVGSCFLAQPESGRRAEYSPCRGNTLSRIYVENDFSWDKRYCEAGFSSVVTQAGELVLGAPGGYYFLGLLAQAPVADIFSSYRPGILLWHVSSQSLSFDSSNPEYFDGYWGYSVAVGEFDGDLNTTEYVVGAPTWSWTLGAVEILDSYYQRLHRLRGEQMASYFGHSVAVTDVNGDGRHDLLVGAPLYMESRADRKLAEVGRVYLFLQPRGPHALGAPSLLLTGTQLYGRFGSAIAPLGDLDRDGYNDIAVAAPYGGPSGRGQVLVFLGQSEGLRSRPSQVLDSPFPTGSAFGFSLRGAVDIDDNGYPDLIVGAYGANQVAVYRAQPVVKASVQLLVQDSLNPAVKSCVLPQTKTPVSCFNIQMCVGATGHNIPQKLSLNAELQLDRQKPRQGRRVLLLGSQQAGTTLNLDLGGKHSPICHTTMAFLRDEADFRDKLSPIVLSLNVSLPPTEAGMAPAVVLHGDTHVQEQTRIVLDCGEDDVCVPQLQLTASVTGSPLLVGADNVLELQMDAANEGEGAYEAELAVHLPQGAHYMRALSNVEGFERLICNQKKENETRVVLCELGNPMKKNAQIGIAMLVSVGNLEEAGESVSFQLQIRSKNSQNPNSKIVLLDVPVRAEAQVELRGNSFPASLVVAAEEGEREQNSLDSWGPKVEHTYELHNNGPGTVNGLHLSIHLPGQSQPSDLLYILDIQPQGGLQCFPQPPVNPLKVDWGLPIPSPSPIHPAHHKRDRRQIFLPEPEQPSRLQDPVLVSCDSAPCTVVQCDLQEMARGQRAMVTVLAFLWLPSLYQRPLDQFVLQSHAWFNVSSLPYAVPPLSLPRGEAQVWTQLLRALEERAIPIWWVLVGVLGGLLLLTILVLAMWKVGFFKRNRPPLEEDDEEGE
Sequence (P05106 27-788): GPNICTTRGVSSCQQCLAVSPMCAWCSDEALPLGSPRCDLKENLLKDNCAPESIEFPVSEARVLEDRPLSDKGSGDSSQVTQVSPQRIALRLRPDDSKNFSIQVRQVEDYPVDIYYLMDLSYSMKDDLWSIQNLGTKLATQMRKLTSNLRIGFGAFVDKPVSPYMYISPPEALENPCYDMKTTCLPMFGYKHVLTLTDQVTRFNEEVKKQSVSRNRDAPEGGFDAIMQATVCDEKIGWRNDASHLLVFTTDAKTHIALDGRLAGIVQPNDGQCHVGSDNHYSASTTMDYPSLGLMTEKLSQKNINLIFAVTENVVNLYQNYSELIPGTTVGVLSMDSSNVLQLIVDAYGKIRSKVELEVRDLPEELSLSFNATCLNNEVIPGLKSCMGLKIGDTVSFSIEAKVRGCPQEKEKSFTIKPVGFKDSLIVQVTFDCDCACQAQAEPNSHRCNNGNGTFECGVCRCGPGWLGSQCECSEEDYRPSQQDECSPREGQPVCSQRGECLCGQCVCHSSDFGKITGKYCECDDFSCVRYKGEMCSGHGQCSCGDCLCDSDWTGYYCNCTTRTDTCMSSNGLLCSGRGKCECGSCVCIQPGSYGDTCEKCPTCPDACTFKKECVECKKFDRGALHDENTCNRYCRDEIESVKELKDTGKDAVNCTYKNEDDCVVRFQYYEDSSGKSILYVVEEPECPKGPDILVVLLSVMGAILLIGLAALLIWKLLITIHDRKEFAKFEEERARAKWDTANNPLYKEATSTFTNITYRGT
Experiment: In vitro inhibition of ADP-induced aggregation of human platelet-rich plasma (Coller assay)
Format: cell-based
Details: adjusted for fibrinogen concentration (ca. 30 times lower than Coller assay value; 0.1 mg/mL fibrinogen)
Description: 1. In vitro Inhibition of Aggregation of Human Platelet-Rich Plasma
Whole blood (10 ml) was collected from human volunteers and anticoagulated by addition of […] of 40% sodium citrate. Platelet-rich plasma (PRP) was prepared by low speed centrifugation (700 G for 3.5 min at 22° C.). The PRP was removed and the remaining blood was centrifuged at 2000 G for 10 min at 22 ° C. to obtain platelet poor plasma (PPP). The PRP was diluted with PPP to give a final platelet count of 300 000μL with a Coulter Acounter Model ZM (Coulter, Hialeah, Fla.). This diluted PRP (400μL) was placed in a siliconized glass cuvette equipped with a magnetic stirrer and stirred at 1200 rpm at 37° C. Various concentrations of the peptides (36μL) in TRIS buffer (0.01 M TRIS, 0.15 M NaCl, and 0.05% sodium azide, pH 7.4) was added and incubated for 3 rain before platelet aggregation was induced by addition of 54μL of 100μM ADP in HEPES buffer (0.01 M HEPES and 0.15 M NaCl, pH 7.5). The platelet aggregation was determined by a change in light transmission through the PRP on a Lumi Aggregometer 400rS (ChronoLog, Hayertown, PA). The ability of the peptides to inhibit platelet aggregation was evaluated and the IC50 was determined as the concentration of peptide required to produce 50% inhibition of the response to ADP in the presence of the TRIS buffer.
The assay system developed by Coller, which is used throughout the experiment, is different from conventional assay systems in certain aspects. First, the platelets used by Plow et al., Blood, 70, 110 (1987); and Garsky et al., Proc. Natl. Acad. Sci. U.S.A., 86, 4022 (1989) are gel-filtered to remove plasma proteins. Since the gel-filtration treatment may decrease the reactivity of the platelets, our assay avoids this step. The platelet count is adjusted by simply mixing PRP and PPP, which minimizes alterations of the platelets. Second, fibrinogen concentration in the Coller system is different from that of others. As shown in the experimental description of the assay, PRP was obtained from fresh blood and used immediately without further manipulation except for count adjustment. According to measurements obtained using this assay, such plasma contains ca. 3 mg of fibrinogen per 1 mL of plasma. On the other hand, fibrinogen concentration used in the Garsky and Plow assay system is 0.1 mg/mL. The concentration of fibrinogen affects the amount of RGD peptide required to inhibit platelet aggregation, with higher fibrinogen concentrations resulting in higher IC50 values. If there is a linear relationship between these two parameters, the IC50 values obtained from the Coller assay should be ca. 30 times larger than those obtained from the Plow et al. assay or the Garsky et al. assay. The adjusted IC50 values are presented in column 4 of Table showing the inhibitory activities of RGD peptides.
The following peptides were synthesized, and their amino acid contents were analyzed as described in procedures 3-7, above. In addition, their ability to inhibit aggregation of human platelet rich plasma was assessed as described in procedures 1 and 2, above. Their respective IC50 values, as well as their estimated IC50 adjusted to the values according the method of Plow et al., (vide supra) are listed in Table 1.

SMILES	IC50 (M)* Estimated IC50 adjusted to the values by the method of Plow et al. [M]
N=C(N)NCCC[C@H](N)C(=O)NCC(=O)N[C@@H](CC(=O)O)C(=O)N[C@@H](Cc1ccccc1)C(=O)N1CCC[C@H]1C(=O)NCC(=O)Nc1cc(NC(=O)CNC(=O)[C@@H]2CCCN2C(=O)[C@H](Cc2ccccc2)NC(=O)[C@H](CC(=O)O)NC(=O)CNC(=O)[C@@H](N)CCCNC(=N)N)cc(C(=O)NCC(=O)O)c1 [Example 1, (RGDFPG)2 Dab--G--OH] (I: H-RGDFPG / II: H-RGDFPG; linker I:C-II:C via X2; N-terminus assumed)	6.7e-07
N=C(N)NCCC[C@H](NC(=O)CN)C(=O)NCC(=O)N[C@@H](CC(=O)O)C(=O)N[C@@H](CO)C(=O)NCC(=O)Nc1ccc(C(=O)NCC(=O)N[C@@H](CCCNC(=N)N)C(=O)NCC(=O)N[C@@H](CC(=O)O)C(=O)N[C@@H](Cc2ccccc2)C(N)=O)cc1 [Example 27, GRGDSG-(p)Abz--GRGDF--NH2] (H-GRGDSG[4Abz]GRGDF-NH2)	1.7e-06
N=C(N)NCCC[C@H](NC(=O)CN)C(=O)NCC(=O)N[C@@H](CC(=O)O)C(=O)N[C@@H](Cc1ccccc1)C(=O)NCC(=O)Nc1cc(NC(=O)CNC(=O)[C@H](Cc2ccccc2)NC(=O)[C@H](CC(=O)O)NC(=O)CNC(=O)[C@H](CCCNC(=N)N)NC(=O)CN)cc(C(=O)NCC(=O)N[C@@H](CCCNC(=N)N)C(=O)NCC(=O)N[C@@H](CC(=O)O)C(=O)N[C@@H](Cc2ccccc2)C(N)=O)c1 [Example 15, (GRGDFG)2 Dab--GRGDF--NH2]	1.1e-06
N=C(N)NCCC[C@H](NC(=O)CN)C(=O)NCC(=O)N[C@@H](CC(=O)O)C(=O)N[C@@H](Cc1ccccc1)C(=O)NCC(=O)Nc1ccc(C(=O)NCC(=O)N[C@@H](CCCNC(=N)N)C(=O)NCC(=O)N[C@@H](CC(=O)O)C(=O)N[C@@H](Cc2ccccc2)C(=O)O)cc1 [Example 21, GRGDFG--(p)Abz--GRGDF--OH] (H-GRGDFG[4Abz]GRGDF-OH)	1.2e-06
N=C(N)NCCC[C@H](NC(=O)CCCC(=O)N[C@@H](CCCNC(=N)N)C(=O)NCC(=O)N[C@@H](CC(=O)O)C(=O)N[C@@H](Cc1ccccc1)C(=O)O)C(=O)NCC(=O)N[C@@H](CC(=O)O)C(=O)N[C@@H](Cc1ccccc1)C(=O)O [Example 13, Pda (RGDF--OH)2] (I: RGDF-OH / II: RGDF-OH; linker I:N-II:N via Glutaryl)	5e-07
N=C(N)NCCC[C@H](NC(=O)CN)C(=O)NCC(=O)N[C@@H](CC(=O)O)C(=O)N[C@@H](Cc1ccccc1)C(=O)NCC(=O)Nc1ccc(C(=O)NCC(=O)N[C@@H](CCCNC(=N)N)C(=O)NCC(=O)N[C@@H](CC(=O)O)C(=O)N[C@@H](Cc2ccccc2)C(N)=O)cc1 [Example 24, GRGDFG--(p)Abz--GRGDF--NH2] (H-GRGDFG[4Abz]GRGDF-NH2)	2.1e-06
CC(C)[C@H](NC(=O)[C@H](CC(=O)O)NC(=O)CNC(=O)[C@H](CCCNC(=N)N)NC(=O)CN)C(=O)NCC(=O)Nc1ccccc1C(=O)NCC(=O)N[C@@H](CCCNC(=N)N)C(=O)NCC(=O)N[C@@H](CC(=O)O)C(=O)N[C@@H](Cc1ccccc1)C(N)=O [Example 28, GRGDVG--(o)Abz--GRGDF--NH2] (H-GRGDVG[2Abz]GRGDF-NH2)	3.1e-06
N=C(N)NCCC[C@H](NC(=O)CN)C(=O)NCC(=O)N[C@@H](CC(=O)O)C(=O)N[C@@H](Cc1ccccc1)C(=O)NCCC[C@H](NC(=O)[C@H](Cc1ccccc1)NC(=O)[C@H](CC(=O)O)NC(=O)CNC(=O)[C@H](CCCNC(=N)N)NC(=O)CN)C(N)=O [Example 5, (GRGDF)2 Orn--NH2]	4.4e-06
CCCCCC(=O)N[C@@H](CCCNC(=N)N)C(=O)NCC(=O)N[C@@H](CC(=O)O)C(=O)N[C@@H](Cc1ccccc1)C(=O)NCCCC[C@H](NC(=O)[C@H](Cc1ccccc1)NC(=O)[C@H](CC(=O)O)NC(=O)CNC(=O)[C@H](CCCNC(=N)N)NC(=O)CCCCC)C(N)=O [Example 8, (HexRGDF)2 Lys--NH2]	7.6e-08
N=C(N)NCCC[C@H](NC(=O)CN)C(=O)NCC(=O)N[C@@H](CC(=O)O)C(=O)N[C@@H](Cc1ccccc1)C(=O)NCCC[C@H](NC(=O)[C@H](Cc1ccccc1)NC(=O)[C@H](CC(=O)O)NC(=O)CNC(=O)[C@H](CCCNC(=N)N)NC(=O)CN)C(=O)NCC(=O)N[C@@H](CCCNC(=N)N)C(=O)NCC(=O)N[C@@H](CC(=O)O)C(=O)N[C@@H](Cc1ccccc1)C(N)=O [Example 18, (GRGDF)2 Orn--GRGDF--NH2]	2.1e-06
N=C(N)NCCC[C@H](NC(=O)CN)C(=O)NCC(=O)N[C@@H](CC(=O)O)C(=O)N[C@@H](Cc1ccccc1)C(=O)NCC(=O)Nc1ccccc1C(=O)NCC(=O)N[C@@H](CCCNC(=N)N)C(=O)NCC(=O)N[C@@H](CC(=O)O)C(=O)N[C@@H](Cc1ccccc1)C(N)=O [Example 22, GRGDFG-(o)Abz--GRGDF--NH2] (H-GRGDFG[2Abz]GRGDF-NH2)	3.1e-06
N=C(N)NCCC[C@H](NC(=O)c1ccccc1)C(=O)NCC(=O)N[C@@H](CC(=O)O)C(=O)N[C@@H](Cc1ccccc1)C(=O)NCCCC[C@H](NC(=O)[C@H](Cc1ccccc1)NC(=O)[C@H](CC(=O)O)NC(=O)CNC(=O)[C@H](CCCNC(=N)N)NC(=O)c1ccccc1)C(N)=O [Example 7, (BzRGDF)2 Lys--NH2]	2.9e-07
CC(C)[C@H](NC(=O)[C@H](CC(=O)O)NC(=O)CNC(=O)[C@H](CCCNC(=N)N)NC(=O)CN)C(=O)NCC(=O)Nc1cccc(C(=O)NCC(=O)N[C@@H](CCCNC(=N)N)C(=O)NCC(=O)N[C@@H](CC(=O)O)C(=O)N[C@@H](Cc2ccccc2)C(N)=O)c1 [Example 29, GRGDVG--(m)Abz--GRGDF--NH2] (H-GRGDVG[3Abz]GRGDF-NH2)	1.5e-06
N=C(N)NCCC[C@H](NC(=O)CN)C(=O)NCC(=O)N[C@@H](CC(=O)O)C(=O)N[C@@H](CO)C(=O)NCC(=O)Nc1cccc(C(=O)NCC(=O)N[C@@H](CCCNC(=N)N)C(=O)NCC(=O)N[C@@H](CC(=O)O)C(=O)N[C@@H](Cc2ccccc2)C(N)=O)c1 [Example 26, GRGDSG--(m)Abz--GRGDF--NH2] (H-GRGDSG[3Abz]GRGDF-NH2)	3e-06
N=C(N)NCCC[C@H](NC(=O)C1CC(NC(=O)[C@H](Cc2ccccc2)NC(=O)[C@H](CC(=O)O)NC(=O)CNC(=O)[C@@H](N)CCCNC(=N)N)CC(NC(=O)[C@H](Cc2ccccc2)NC(=O)[C@H](CC(=O)O)NC(=O)CNC(=O)[C@@H](N)CCCNC(=N)N)C1)C(=O)NCC(=O)N[C@@H](CC(=O)O)C(=O)N[C@@H](Cc1ccccc1)C(=O)O (some centres unmarked) [Example 16, (RGDF)2 Dac--RGDF--OH]	7.2e-07
N=C(N)NCCC[C@H](NC(=O)CN)C(=O)NCC(=O)N[C@@H](CC(=O)O)C(=O)N[C@@H](Cc1ccccc1)C(=O)NCCCC[C@H](NC(=O)[C@H](Cc1ccccc1)NC(=O)[C@H](CC(=O)O)NC(=O)CNC(=O)[C@H](CCCNC(=N)N)NC(=O)CN)C(=O)NCC(=O)N[C@@H](CCCNC(=N)N)C(=O)NCC(=O)N[C@@H](CC(=O)O)C(=O)N[C@@H](Cc1ccccc1)C(N)=O [Example 17, (GRGDF)2 Lys--GRGDF--NH2]	1.7e-06
N=C(N)NCCC[C@H](N)C(=O)NCC(=O)N[C@@H](CC(=O)O)C(=O)N[C@@H](Cc1ccccc1)C(=O)N1CCC[C@H]1C(=O)NCC(=O)Nc1cc(NC(=O)CNC(=O)[C@@H]2CCCN2C(=O)[C@H](Cc2ccccc2)NC(=O)[C@H](CC(=O)O)NC(=O)CNC(=O)[C@@H](N)CCCNC(=N)N)cc(C(N)=O)c1 [Example 2, (RGDFPG)2 Dab--NH2] (I: H-RGDFPG / II: H-RGDFPG; linker I:C-II:C via X1; N-terminus assumed)	4.2e-07
